The text below walks through data of paper PMC11206987, “Investigation of the Efficacy of Benzylidene-3-methyl-2-thioxothiazolidin-4-one Analogs with Antioxidant Activities on the Inhibition of Mushroom and Mammal Tyrosinases” (Molecules, 2024).

One data set relates to mushroom tyrosinase. Put plainly: Mushroom tyrosinase inhibition assay (dopachrome, 475 nm). The settings on record: for IC50: mushroom tyrosinase. The format is biochemical. On the procedure: The ability of the BMTTZD analogs to inhibit mushroom tyrosinase was evaluated in the presence of L-dopa and L-tyrosine as previously described.
For data set [1], the system named is B16F10 cells. Put plainly: Cell cytotoxicity test (EZ-Cytox). The format is cell-based, murine. The settings on record: 2.5–20 µM, 48 and 72 h. On the procedure:
Because analogs 1–3 and 5 exerted potent mushroom tyrosinase inhibitory activities, their effects on anti-melanogenic and cellular tyrosinase activities were evaluated in B16F10 murine cells. Prior to examining their cellular activity, their cell viabilities were investigated. Cell viability was evaluated at 48 and 72 h after treatment with five different concentrations of analogs.
The effect on B16F10 cytotoxicity was assessed following a previously described method. Cells (1 × 10^4 cells/well of a 96-well plate) were cultivated for 24 h with 5% CO2 at 37 °C. The cells were exposed to the BMTTZD analogs (test concentrations: 20, 10, 5, 2.5, and 0 µM) and cultivated with 5% CO2 at 37 °C for 72 h. An EZ-Cytox solution (10 µL; EZ-500, DoGenBio, Seoul, Republic of Korea) was exposed to each well, and the plate was cultivated for 2 h. Cell viability was calculated from the well absorbance measured at 450 nm utilizing a reader (VersaMax®).

In data set [2] the test system is B16F10 cells. As to the kind of experiment: Melanin content assay in B16F10 cells. The settings on record: 72 h. The format is cell-based, murine. On the procedure:
We examined whether the ability of analogs 1, 3, and 5 to inhibit intracellular tyrosinase activity could affect intracellular melanin levels. B16F10 cells were utilized as mammalian cells. IBMX and α-MSH were used at 200 µM and 1 µM, respectively, to increase melanin biosynthesis. […] For the intracellular melanin content determination, the absorbance at 405 nm was evaluated after 72 h of incubation.
The effect of BMTTZD analogs on melanin biosynthesis was investigated following a previously described method. A 6-well microplate containing 1 × 10^5 B16F10 cells/well was cultivated for 23 h under conditions identical to those of the cell culture. […] After exposure to IBMX and α-MSH, B16F10 cells were cultivated for 72 h at 37 °C. The cells were rinsed 2 times with PBS, treated with 1N-NaOH aqueous solution (100 µL), and cultivated at 60 °C for 1 h. The lysates were moved to a microplate. At 405 nm, the well absorbance was measured utilizing a VersaMax® reader. Each experiment was carried out three times independently.

The target of data set [3] is T1, B16F10 cellular tyrosinase (Mus musculus, UniProt P11344).
T1 construct: host or cells: B16F10 cells
T1 sequence (P11344 19-533): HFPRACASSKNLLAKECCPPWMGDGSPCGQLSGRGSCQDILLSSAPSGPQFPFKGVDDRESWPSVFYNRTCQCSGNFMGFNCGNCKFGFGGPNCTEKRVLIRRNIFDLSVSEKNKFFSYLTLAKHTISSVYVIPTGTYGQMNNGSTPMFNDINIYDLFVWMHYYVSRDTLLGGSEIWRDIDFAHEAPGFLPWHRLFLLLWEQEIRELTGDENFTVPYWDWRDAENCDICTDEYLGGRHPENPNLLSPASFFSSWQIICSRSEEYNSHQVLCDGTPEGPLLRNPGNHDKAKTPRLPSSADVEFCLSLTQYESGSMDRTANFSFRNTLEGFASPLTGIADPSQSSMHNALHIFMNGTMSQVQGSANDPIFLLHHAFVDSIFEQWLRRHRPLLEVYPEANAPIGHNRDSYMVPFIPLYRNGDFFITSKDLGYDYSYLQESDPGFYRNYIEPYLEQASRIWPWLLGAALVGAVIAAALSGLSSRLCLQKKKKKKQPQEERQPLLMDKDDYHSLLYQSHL
As to the kind of experiment: In situ cellular tyrosinase activity assay using L-dopa staining. In kind it is cell-based, murine. The settings on record: 72 h. On the procedure: Because tyrosinase plays a critical role in melanogenesis, in situ intracellular tyrosinase activity was measured. The in situ intracellular tyrosinase activity was evaluated in B16F10 cells following a previously reported procedure. Stimulators (α-MSH plus IBMX) were exposed to cells to raise tyrosinase activity levels, and analogs 1, 3, and 5 were treated at 20, 10, and 5 µM for 72 h. After fixation and permeabilization using paraformaldehyde and Triton X-100, the cells were stained with L-dopa.
A 24-well plate containing 1 × 10^3 B16F10 cells/well was cultivated for 24 h under conditions identical to those of the cell culture. […] The cells were then cultivated under conditions identical to those of the cell culture for 72 h. Cultivated cells were fixed for 40 min with paraformaldehyde (4%), washed 2 times with PBS, and permeabilized with Triton X-100 (0.1%) for 2 min. After washing 2 times with PBS, the cells in the 24-well plate were stained with a 2 mM L-dopa aqueous solution (500 µL/well) for 2 h at 37 °C. Staining was photographed and analyzed utilizing a camera connected to a microscope (Motic, Hong Kong).

Data set [4] can be described thus: DPPH radical scavenging activity assay. The settings on record: 500 µM. As to the method: First, the ability of BMTTZD analogs 1–8 to scavenge DPPH radicals was examined using L-ascorbic acid (vitamin C; positive control). All samples were tested at 500 µM.
The ability of the BMTTZD analogs to scavenge DPPH radicals was evaluated as previously reported. To each well of a 96-well plate containing analogs 1–8 (5 mM in […]; 20 µL) was added a DPPH solution (0.2 mM in methanol; 180 µL). The mixture was kept in a place without light for 30 min at 25°C to generate DPPH radicals. The well absorbance at 517 nm was measured utilizing a VersaMax® reader. The ability of the analogs to remove DPPH radicals was compared to that of vitamin C.
(In general: The DPPH test is a chemical assay of radical scavenging.)

Data set [5] is described as follows: ABTS+ radical scavenging activity assay. The settings on record: 100 µM. On the procedure:
Second, the ability of BMTTZD analogs to scavenge ABTS^+ radicals was examined. ABTS^+ radicals were obtained via the oxidation of ABTS using potassium persulfate. All samples (Trolox (positive control) and 1–8) were tested at 100 µM.
The ability of the BMTTZD analogs to scavenge ABTS^+ radicals was assessed as previously described, with minor modifications. To a 50 mL tube were added 20 mL aqueous K2S2O8 solution (2.45 mM) and 20 mL aqueous ABTS solution (7 mM). The combined mixture was placed at 22 °C in a place without light for 17 h to generate the ABTS^+ radicals. For adequate absorbance control (0.70 ± 0.02 at 734 nm), methanol was added to the combined mixture. Test compounds (Trolox and analogs 1–8; 10 µL in 10% DMSO/90% EtOH [v/v] solution) were mixed with 90 µL ABTS^+ radical solution. After storage in a place without light for 2 min, the well absorbance at 734 nm was acquired for 10 min every 1 min by using a microplate reader (VersaMax®). All test compounds were tested at 100 µM. The activity of the analogs was compared to that of Trolox.

Each structure is given as a SMILES string. Where two headings read alike, the source gives them in different places.

For orientation: IC50 means the concentration that gives 50% inhibition.

Turning to `CN1C(=O)/C(=C/c2ccc(O)cc2O)SC1=S` [Analog 3, (Z)-5-(2,4-Dihydroxybenzylidene)-3-methyl-2-thioxothiazolidin-4-one], in the data set on mushroom tyrosinase (substrate L-dopa), the “tyrosinase inhibition, fold stronger than kojic acid” value was found to be 22 fold. Also, the concentration for half-maximal inhibition (IC50) came to 1.12 ± 0.06 µM on mushroom tyrosinase (substrate L-dopa, read-out: IC50 (Mean ± SEM, µM) L-Dopa) and 0.08 ± 0.02 µM on mushroom tyrosinase (substrate L-tyrosine, read-out: IC50 (Mean ± SEM, µM) L-Tyrosine). The “tyrosinase inhibition, times stronger than kojic acid” value in the data set with mushroom tyrosinase (substrate L-tyrosine) is listed as 220 times. In the data set with B16F10 cells [1], the “cytotoxicity (cell viability)” value is on record as “did not exhibit cytotoxicity at ≤20 µM”. In addition, the “decrease of intracellular melanin contents” value with B16F10 cells [2] (20 µM, IBMX plus α-MSH (raised melanin 4.4-fold)) worked out at 2.0 fold. Also, the “effect on intracellular melanin contents enhanced by IBMX plus α-MSH” value in the data set with B16F10 cells [2] (5, 10, 20 µM) is recorded as “significantly reduced the melanin contents”. Also, the “in situ intracellular tyrosinase inhibition compared with kojic acid” value in data set [3] (20 µM) is on record as “tyrosinase inhibition stronger than did kojic acid”. Besides, the “effect on stimulator-raised in situ intracellular tyrosinase activity (L-dopa staining)” value in data set [3] (analogs 5, 10, 20 µM, kojic acid 20 µM) is “concentration-dependently reduced the stimulator-enhanced intracellular tyrosinase inhibition”. In data set [4], the “DPPH radical scavenging activity” value is reported as 82%. Moreover, in data set [5], the “ABTS^+ radical scavenging activity” value is 95%.
